The structures appear in SMILES notation. Read-outs that look alike come from different tables or passages of the source. Marks after values point to notes of the source that are not given here.

The conditions of data set [1]: for Changes of body weight, Control AUC, day 7 / Changes of body weight, D-18506(4 × 68.1 mg/kg p.o.) AUC, day 7 / Changes of body weight, D-21266(4 × 46.4 mg/kg p.o.) AUC, day 7: AUC to day 7; for Changes of body weight, Control AUC, day 7 / Changes of body weight, Control AUC, day 11: asterisks = comparison with control group; for Changes of body weight, D-18506(4 × 68.1 mg/kg p.o.) AUC, day 7 / Changes of body weight, D-18506(4 × 68.1 mg/kg p.o.) AUC, day 11: compared with D-18506 alone (D-18506 4 × 68.1 mg/kg p.o. alone); for Changes of body weight, D-18506(4 × 68.1 mg/kg p.o.) AUC, day 7 / Changes of body weight, D-18506(4 × 68.1 mg/kg p.o.) AUC, day 11 / Changes of body weight, D-21266(4 × 46.4 mg/kg p.o.) AUC, day 7 / Changes of body weight, D-21266(4 × 46.4 mg/kg p.o.) AUC, day 11: same i.p. doses as c1; for Changes of body weight, Control AUC, day 11 / Changes of body weight, D-18506(4 × 68.1 mg/kg p.o.) AUC, day 11 / Changes of body weight, D-21266(4 × 46.4 mg/kg p.o.) AUC, day 11: AUC to day 11; for Changes of body weight, D-21266(4 × 46.4 mg/kg p.o.) AUC, day 7 / Changes of body weight, D-21266(4 × 46.4 mg/kg p.o.) AUC, day 11: compared with D-21266 alone (D-21266 4 × 46.4 mg/kg p.o. alone); for Effect on body weight development of animals treated with octadecyl(1,1-dimethylpiperidinio-4-yl)phosphate: simultaneous administration with D-21266, normal rats, FIGS. 7 and 8, Table 2.
Source text: Comparative studies with respect to body weight changes in healthy and tumor-bearing rats were investigated after administration of miltefosine or octadecyl(1,1-dimethylpiperidinio-4-yl)phosphate alone and in combination with various appetite-stimulating compounds.

Data set [2] deals with DMBA-induced breast tumor. Briefly: Anti-tumor action on DMBA-induced breast tumor of rats. The note with it: rats with DMBA-induced breast tumor; FIGS. 11-12. In kind it is in vivo, rat.
The conditions of data set [3]: cancer patients; Eur. J. Cancer 29A, 208-209, 1993; cited from earlier work.
Setting [4] is: Table 1, rat, i.p. mg/kg: Domperidone 0.1, Pimozide 0.2, Metoclopramide 0.2, Cyproheptadine 2.5, combinations with D-18506 4 × 68.1 mg/kg p.o.
The mark [5] stands for this setting: Table 2, rat, i.p. mg/kg: Pimozide 0.1, Cyproheptadine 2.5, Metoclopramide 0.2, Domperidone 0.1, combinations with D-21266 4 × 46.4 mg/kg p.o.

In the case of `O=c1[nH]c2ccccc2n1C1CCN(CCCC(c2ccc(F)cc2)c2ccc(F)cc2)CC1` [Pimozide, pimozide], in data set [1] (setting [4]), the “Changes of body weight, Control AUC, day 7” value (“Changes … Control AUC, day 7” for short) is 30.4** and the “Changes of body weight, Control AUC, day 11” value (“Changes … Control AUC, day 11” below) is 69.8**. In data set [1] (Table 1, rat), the “Changes of body weight, D-18506(4 × 68.1 mg/kg p.o.) AUC, day 7” value was 30.4** and the “Changes of body weight, D-18506(4 × 68.1 mg/kg p.o.) AUC, day 11” value was 69.8**. In addition, in data set [1] (setting [5]), the “Changes … Control AUC, day 7” value is listed as 31.2** and the “Changes … Control AUC, day 11” value is recorded as 67.5**. In addition, in data set [1] (Table 2, rat), the “Changes of body weight, D-21266(4 × 46.4 mg/kg p.o.) AUC, day 7” value is 31.2** and the “Changes of body weight, D-21266(4 × 46.4 mg/kg p.o.) AUC, day 11” value was 67.5**.

For the compound `O=c1[nH]c2ccccc2n1CCCN1CCC(n2c(=O)[nH]c3cc(Cl)ccc32)CC1` [Domperidone, domperidone], in data set [1], the “Effect on body weight development of animals treated with octadecyl(1,1-dimethylpiperidinio-4-yl)phosphate” value (“Effect on body weight development” below) is “more than compensated”. Moreover, in data set [1] (tumor-bearing rats, FIGS. 9-10), the “Body weight development, alone and in combination with octadecyl(1,1-dimethylpiperidinio-4-yl)phosphate” value is listed as “increase the body weight development”. Moreover, the “Effect on anti-tumor action of octadecyl(1,1-dimethylpiperidinio-4-yl)phosphate” value in data set [2] is given as “without affecting the anti-tumor action”.

On to `CCCCCCCCCCCCCCCCCCOP(=O)([O-])OC1CC[N+](C)(C)CC1` [D-21266, octadecyl(1,1-dimethylpiperidinio-4-yl)phosphate], for which, in data set [1] (Table 2, rat), the “Changes of body weight, D-21266(4 × 46.4 mg/kg p.o.) AUC, day 7” value is recorded as 10.6 and the “Changes of body weight, D-21266(4 × 46.4 mg/kg p.o.) AUC, day 11” value worked out at 37.1. Further, in data set [1] (rat, in vivo), the “Body weight development after octadecyl(1,1-dimethylpiperidinio-4-yl)phosphate alone” value is “increase in weight less than the control animals”.

For the compound `CN1CCC(=C2c3ccccc3C=Cc3ccccc32)CC1` [Cyproheptadine, cyproheptadine], in data set [1] (setting [4]), the “Changes … Control AUC, day 7” value stood at 0.8 and the “Changes … Control AUC, day 11” value came out at 15.5. Further, in data set [1] (Table 1, rat), the “Changes of body weight, D-18506(4 × 68.1 mg/kg p.o.) AUC, day 7” value came to 0.8 and the “Changes of body weight, D-18506(4 × 68.1 mg/kg p.o.) AUC, day 11” value is 15.5. In addition, in data set [1] (setting [5]), the “Changes … Control AUC, day 7” value is on record as 1.5 and the “Changes … Control AUC, day 11” value is given as 20.6. Besides, in data set [1] (Table 2, rat), the “Changes of body weight, D-21266(4 × 46.4 mg/kg p.o.) AUC, day 7” value came to 1.5 and the “Changes of body weight, D-21266(4 × 46.4 mg/kg p.o.) AUC, day 11” value was 20.6. Besides, the “Effect on body weight development” value in data set [1] was “no significant effect”.

Consider `CCN(CC)CCNC(=O)c1cc(Cl)c(N)cc1OC` [Metoclopramide, metoclopramide], for which, in data set [1] (setting [4]), the “Changes … Control AUC, day 7” value is given as 11.5 and the “Changes … Control AUC, day 11” value came to 30.5. For the same compound, in data set [1] (Table 1, rat), the “Changes of body weight, D-18506(4 × 68.1 mg/kg p.o.) AUC, day 7” value is recorded as 11.5** and the “Changes of body weight, D-18506(4 × 68.1 mg/kg p.o.) AUC, day 11” value is given as 30.5**. In addition, in data set [1] (setting [5]), the “Changes … Control AUC, day 7” value was 19.2 and the “Changes … Control AUC, day 11” value amounted to 49.4. Also, in data set [1] (Table 2, rat), the “Changes of body weight, D-21266(4 × 46.4 mg/kg p.o.) AUC, day 7” value is recorded as 19.2 and the “Changes of body weight, D-21266(4 × 46.4 mg/kg p.o.) AUC, day 11” value is given as 49.4. Also, the “Effect on body weight development” value in data set [1] is “no significant effect”. Besides, the “Effect on the loss of weight caused by miltefosine” value in data set [1] (simultaneous administration with miltefosine, healthy and tumor-bearing rats, domperidone or pimozide 5×0.1 mg/kg i.p.) is “does not lead to any positive effect”.

For `CCCCCCCCCCCCCCCCOP(=O)([O-])OCC[N+](C)(C)C` [D-18506, miltefosine], in data set [1] (Table 1, rat), the “Changes of body weight, D-18506(4 × 68.1 mg/kg p.o.) AUC, day 7” value is reported as −17.9 and the “Changes of body weight, D-18506(4 × 68.1 mg/kg p.o.) AUC, day 11” value was −23.5. Also, the “Body weight change on administration of miltefosine alone” value in data set [1] (rat, in vivo) is “clear loss of weight”. Also, the “Side effects in patients treated with miltefosine” value in data set [3] is reported as “marked loss of body weight”.

Values taken from patent publication US6576624B1, “Use of dopamine receptor antagonists in palliative tumor therapy” (Zentaris AG, priority 1996, dated 2003).
